Measurements from ChEMBL document CHEMBL1275378, “Exploration of the active site of neuronal nitric oxide synthase by the design and synthesis of pyrrolidinomethyl 2-aminopyridine derivatives” (J Med Chem, 2010).
pKi: −log10 of the molar value.

How the values were obtained:
[1] = Selectivity ratio of IC50 for rat recombinant nNOS to IC50 for mouse recombinant iNOS
Nitric oxide synthase 3 = target: T1, Nitric oxide synthase 3 (Bos taurus, UniProt P29473); assay: Inhibition of bovine recombinant eNOS
T1 sequence (P29473 whole entry): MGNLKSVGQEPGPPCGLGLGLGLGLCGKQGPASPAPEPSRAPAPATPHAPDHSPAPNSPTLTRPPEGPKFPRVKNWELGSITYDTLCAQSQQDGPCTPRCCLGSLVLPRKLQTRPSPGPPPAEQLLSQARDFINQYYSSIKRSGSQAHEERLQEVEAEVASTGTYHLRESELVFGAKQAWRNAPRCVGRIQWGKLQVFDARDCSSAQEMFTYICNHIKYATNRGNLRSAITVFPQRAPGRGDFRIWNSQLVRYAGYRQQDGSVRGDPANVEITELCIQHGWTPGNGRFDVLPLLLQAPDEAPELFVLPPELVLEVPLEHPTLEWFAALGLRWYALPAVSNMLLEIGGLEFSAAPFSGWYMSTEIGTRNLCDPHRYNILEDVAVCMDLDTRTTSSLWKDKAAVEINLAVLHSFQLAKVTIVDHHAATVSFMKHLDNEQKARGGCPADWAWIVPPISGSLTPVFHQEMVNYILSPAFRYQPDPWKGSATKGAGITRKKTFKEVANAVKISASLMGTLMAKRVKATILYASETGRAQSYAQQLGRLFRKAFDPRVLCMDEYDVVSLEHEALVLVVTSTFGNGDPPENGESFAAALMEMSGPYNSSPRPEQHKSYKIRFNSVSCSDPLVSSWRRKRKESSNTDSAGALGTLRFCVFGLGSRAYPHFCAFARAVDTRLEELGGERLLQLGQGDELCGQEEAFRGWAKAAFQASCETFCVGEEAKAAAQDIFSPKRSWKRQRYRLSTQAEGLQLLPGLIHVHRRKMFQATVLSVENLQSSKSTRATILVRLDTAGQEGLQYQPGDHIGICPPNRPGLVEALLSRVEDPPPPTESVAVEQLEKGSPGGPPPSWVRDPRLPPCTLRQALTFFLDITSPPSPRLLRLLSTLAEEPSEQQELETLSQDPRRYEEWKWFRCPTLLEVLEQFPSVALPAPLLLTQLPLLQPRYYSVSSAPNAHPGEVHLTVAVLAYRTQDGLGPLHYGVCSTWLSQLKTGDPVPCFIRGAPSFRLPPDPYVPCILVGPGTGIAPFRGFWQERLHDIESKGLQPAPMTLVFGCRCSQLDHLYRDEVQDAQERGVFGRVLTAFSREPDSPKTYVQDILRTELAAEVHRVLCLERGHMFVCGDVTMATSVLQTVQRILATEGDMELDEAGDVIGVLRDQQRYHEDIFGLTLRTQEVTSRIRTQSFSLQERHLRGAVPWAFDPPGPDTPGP

[2] = Selectivity ratio of IC50 for rat recombinant nNOS to IC50 for bovine recombinant eNOS

| Ratio [1] | pKi (Nitric oxide synthase 3) | nNOS selectivity over eNOS (eNOS IC50 / nNOS IC50) [2] | Structure (SMILES) |
| --- | --- | --- | --- |
| 12 | 3.96 | 6 | Nc1cccc(C[C@H]2CNC[C@@H]2N[C@H]2CCN(Cc3ccccc3)C2)n1 (racemic) |
| 9 |  |  | Cc1cc(N)nc(C[C@H]2CNC[C@@H]2NCCN)c1 (racemic; form 1) [listing 1 of 2 here] |
| 127 | 3.70 | 306 | Cc1cccc(CNCCN[C@H]2CNC[C@@H]2Cc2cc(C)cc(N)n2)c1 (racemic) |
|  | 2.77 |  | NCCN1C[C@H](Cc2cccc(N)n2)[C@@H](NCCCO)C1 (racemic) |
| 79 | 3.96 | 147 | Cc1cc(N)nc(C[C@H]2CNC[C@@H]2NCCNCc2cccc(C(F)(F)F)c2)c1 (racemic) |
| 11.5 | 2.54 | 201 | Nc1cccc(C[C@H]2CNC[C@@H]2NCCNCc2ccccc2)n1 (racemic) |
| 18 | 3.20 | 49 | Nc1cccc(C[C@H]2CNC[C@@H]2N[C@H]2CCNC2)n1 (racemic) |
|  | 4.24 |  | Cc1cc(N)nc(C[C@H]2CNC[C@H]2N(C)CCNCc2ccc(Cl)cc2)c1 (racemic) |
| 20 | 3.62 | 15 | CN(C)CCN[C@H]1CNC[C@@H]1Cc1cccc(N)n1 (racemic) |
| 8 |  |  | Cc1cc(N)nc(C[C@H]2CNC[C@@H]2NCCCO)c1 (racemic) |
| 35 | 4.78 | 28 | Cc1cc(N)nc(C[C@H]2CNC[C@@H]2NC[C@H](C)NCc2ccc(Cl)cc2)c1 (racemic) |
| 12 | 3.34 | 22 | Nc1cccc(C[C@H]2CNC[C@@H]2N[C@@H]2CCNC2)n1 (racemic) |
| 92 | 4.12 | 158 | Cc1cc(N)nc(C[C@H]2CNC[C@@H]2NCCNCc2ccc(Cl)cc2Cl)c1 (racemic) |
| 190 | 4.36 | 370 | Cc1cc(N)nc(C[C@H]2CNC[C@@H]2NCCNCCc2ccc(F)cc2)c1 (racemic) |
|  | 4.21 |  | Cc1cc(N)nc(C[C@H]2CNC[C@@H]2NCCNCc2ccc(C(F)(F)F)cc2)c1 (racemic) |
| 31 | 4.10 | 90.5 | Cc1cc(N)nc(C[C@H]2CNC[C@@H]2NCCNCc2ccc(F)cc2)c1 (racemic) |
| 110 | 3.76 | 43 | NCCN1C[C@H](Cc2cccc(N)n2)[C@@H](NCCCc2ccccc2)C1 (racemic) |
|  | 3.58 |  | Cc1cc(N)nc(C[C@H]2CNC[C@@H]2NCCN)c1 (racemic; form 2) [listing 1 of 2 here] |
| 21.5 | 2.84 | 105 | Nc1cccc(C[C@H]2CNC[C@@H]2NC[C@H](N)Cc2ccccc2)n1 (racemic) |
| 12 | 3.77 | 7 | Nc1cccc(C[C@H]2CNC[C@@H]2N[C@@H]2CCN(Cc3ccccc3)C2)n1 (racemic) |
| 57 | 4.20 | 153 | Cc1cc(N)nc(C[C@H]2CNC[C@@H]2NCCNCc2ccc(Cl)c(Cl)c2)c1 (racemic) |
| 20 | 2.84 | 71 | Nc1cccc(C[C@H]2CNC[C@@H]2NC[C@@H](N)Cc2ccccc2)n1 (racemic) |
|  | 3.07 |  | NCCN1C[C@H](Cc2cccc(N)n2)[C@H](NCCCO)C1 (racemic) |
| 4 | 3.47 | 49 | Nc1cccc(C[C@H]2CNC[C@@H]2O)n1 (racemic) |
| 52.5 |  |  | Cc1cc(N)nc(C[C@H]2CNC[C@@H]2NCCN)c1 (racemic; form 2) [listing 2 of 2 here] |
| 13 | 3.91 | 2.5 | NCCN1C[C@H](Cc2cccc(N)n2)[C@H](NCCCc2ccccc2)C1 (racemic) |
| 11 | 4.07 | 6 | Cc1cc(N)nc(C[C@H]2CNC[C@@H]2NCCCc2ccccc2)c1 (racemic) |
|  | 3.06 |  | Cc1cc(N)nc(C[C@H]2CNC[C@@H]2NCCN)c1 (racemic; form 1) [listing 2 of 2 here] |
